Measurements as given in ChEMBL document CHEMBL1121966, “(2R*,3S*)-1-[125I]Iodo-2,3-bis(4-hydroxyphenyl)pentane ([125I]iodonorhexestrol) and (2R*,3S*)-1-[77Br]Bromo-2,3-bis(4-hydroxyphenyl)pentane ([77Br]bromonorhexestrol), two gamma-emitting estrogens that show receptor-mediated uptake by target tissues in vivo” (1982).

Experiment: Solvolytic stability of compound was measured relative to p-hydroxyphenethyl bromide
Assay type: functional, Rattus norvegicus

Oc1ccc(CCBr)cc1
1/krel: 1
